# Test results: patent publication US11344564B1, “Method of treatment based on reduced monoamine oxidase a activity” (Lennham Pharmaceuticals, Inc., priority 2021, dated 2022)
# How the values were obtained:
# human MAO-B = molecular target: T1, human MAO-B (Homo sapiens, UniProt P27338); experiment: in vitro metabolism of psilocin by human MAO-B; format: in vitro ADME; conditions: test compound 0.2 and 2 μM; protein 0.03, 0.1, 0.3 and 1 mg/ml; incubation 0-30 min, 37° C., pH 7.4, no cofactors (FIGS. 1C & 1D)
# T1 sequence (P27338 1-520): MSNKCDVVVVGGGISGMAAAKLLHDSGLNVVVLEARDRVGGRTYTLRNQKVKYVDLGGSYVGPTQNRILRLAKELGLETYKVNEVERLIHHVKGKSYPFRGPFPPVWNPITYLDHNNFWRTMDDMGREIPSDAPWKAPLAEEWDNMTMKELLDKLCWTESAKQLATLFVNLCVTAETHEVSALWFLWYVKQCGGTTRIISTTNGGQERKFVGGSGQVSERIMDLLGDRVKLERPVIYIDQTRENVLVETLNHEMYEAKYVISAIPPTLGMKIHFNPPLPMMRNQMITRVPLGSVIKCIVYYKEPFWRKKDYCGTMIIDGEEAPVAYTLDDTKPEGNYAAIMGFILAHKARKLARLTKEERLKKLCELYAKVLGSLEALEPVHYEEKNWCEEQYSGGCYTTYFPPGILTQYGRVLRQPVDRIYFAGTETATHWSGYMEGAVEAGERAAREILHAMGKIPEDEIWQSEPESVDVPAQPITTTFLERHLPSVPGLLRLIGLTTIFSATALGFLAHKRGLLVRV
# human MAO-A = molecular target: T2, human MAO-A (Homo sapiens, UniProt P21397); experiment: in vitro metabolism of psilocin by human MAO-A; format: in vitro ADME; conditions: test compound 0.2 and 2 μM; protein 0.03, 0.1, 0.3 and 1 mg/ml; incubation 0-30 min, 37° C., pH 7.4, no cofactors (FIGS. 1A & 1B)
# T2 sequence (P21397 1-527): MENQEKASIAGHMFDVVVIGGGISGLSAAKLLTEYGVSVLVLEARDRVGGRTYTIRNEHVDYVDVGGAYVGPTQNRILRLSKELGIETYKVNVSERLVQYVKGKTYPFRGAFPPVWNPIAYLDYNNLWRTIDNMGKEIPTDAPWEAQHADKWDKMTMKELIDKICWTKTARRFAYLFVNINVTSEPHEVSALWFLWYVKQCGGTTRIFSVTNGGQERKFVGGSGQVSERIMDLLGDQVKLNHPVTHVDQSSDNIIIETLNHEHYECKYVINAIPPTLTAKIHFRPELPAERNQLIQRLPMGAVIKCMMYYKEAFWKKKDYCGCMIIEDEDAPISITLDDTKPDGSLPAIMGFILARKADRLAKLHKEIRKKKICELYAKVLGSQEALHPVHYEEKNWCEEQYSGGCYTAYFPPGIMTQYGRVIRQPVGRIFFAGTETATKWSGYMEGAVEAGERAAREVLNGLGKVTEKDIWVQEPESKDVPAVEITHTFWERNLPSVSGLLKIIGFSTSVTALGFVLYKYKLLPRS
smiles,measurement,setting,value
"CN(C)CCc1c[nH]c2cccc(O)c12 [psilocin, 4-hydroxy-N,N-dimethyltryptamine]",metabolism by human MAO-B,human MAO-B,not human MAO-B
same,metabolism by human MAO-A,human MAO-A,is metabolized by human MAO-A
